# Patent US20240408071A1, “NOVEL COMBINATION OF SEROTONIN RECEPTOR (5-HTR2B) ANTAGONIST AND AN IMMUNOMODULATOR AND CHEMOTHERAPEUTIC DRUGS FOR INHIBITION OF CANCER” (NATIONAL CENTRE FOR CELL SCIENCE, priority 2021, published 2024)
# Columns and labels:
# MC38 colon cancer cells = assay: MC38 colon tumor growth (tumor volume) in C57BL/6 mice; format: in vivo
# Description: Tumor volumes were measured and plotted. (B) MC38 colon cancer cells were injected subcutaneously into the right flank of C57BL/6 mice. After seven days when tumors became palpable, one group was treated with 5-HTR7 antagonist SB-269970 (n=6 mice; 3 mg/kg/day) or left untreated (n=6 mice). Tumor volume was measured and plotted. (C) After seven days of the setting of tumor growth, one group was treated with a serotonin transporter blocker (SSRI) sertraline hydrochloride (n=6 mice; 15 mg/kg/week) or left untreated (n=6 mice). Tumor volume was measured and plotted. (D) C57BL/6 mice were given subcutaneously injected MC38 cells. After seven days of tumor growth, one group of mice was treated with different doses of 5-HTR2B antagonist SB-215505 (n=6). Tumor volume was measured and plotted. (E) C57BL/6 mice were given subcutaneously injected MC38 cells. After seven days of the tumor growth, one group of mice was treated with different doses of 5-HTR2B antagonist SB-215505 (n=6), one group treated with 5-HTR2B agonist BW-723C86 (n=6; 4 mg/kg/day). Tumor volume was measured and plotted. (F) MC38 cells were subcutaneously injected into C57BL/6 mice. After seven days when the tumor became palpable in mice, one group of mice was treated with FDA-approved 5-HTR2B antagonist cariprazine (Carispec; Sun pharma) via oral gavage (n=5 mice; dose 5 mg/kg body weight/day) or left untreated (n=5 mice). Tumor growth was measured and plotted. […] All the statistical analysis was performed using Student's ‘t’ test or two-way ANOVA using Sidak's multiple comparison test. *P<0.05; **P<0.01; ***P<0.00; ****P<0.0001 Error bar represents mean±standard error of means (SEM).
# MC38 cells [1] = assay: MTT cell viability assay; format: cell-based, mouse; conditions: graded dose; reduced serum media; 48 hours of stimulation
# Description: FIG. 6 depicts that 5-HTR2B signalling in colon cancer affects cell proliferation and viability: Colon cancer MC38 cells were treated with serotonin (100 μM), 5-HTR2B agonist (BW-723C86; 50 μM), or 5-HTR2B antagonist (SB-215505; 50 μM) for 48 hours, and cell cycle analysis was performed by propidium iodide staining using flow cytometry. MC38 cells were also treated with a graded dose of 5-HTR2B agonist (BW-723C86) or serotonin. MTT assay was performed to measure cell viability. (A) After treatment with 5-HTR2B agonist BW-723C86, serotonin, or 5-HTR2B antagonist SB-215505, the relative cell cycle analysis is shown. (B) Relative cell viability data of MC38 cells following treatment of graded doses of 5-HTR2B agonist BW-723C86 or serotonin are shown. The data shown are representative of one of the three independent experiments. (C) MC38 tumor sections from the control tumor and 5-HTR2B antagonist treated tumor were stained for CD31 and the number of CD31^+ micro-blood vessels/mm^2 of tissue sections was counted and plotted to observe angiogenesis. Error bar represents ±standard error of the mean (SEM).
# MC38 cells were cultured at a density of 0.5×10^4 cells/well in 96 well plates (flat bottom) and were allowed to adhere for 24 hours. […] Then, MTT crystals were dissolved with DMSO, and the reading was taken at 590 nm in an ELISA reader (Thermofisher). […]
# PD-L1 = PD-L1 expression on MC38 cells in vitro (flow cytometry, mRNA); format: cell-based, mouse; conditions: BW-723C86 50 μM, serotonin 100 μM, RS-127445 50 μM, 72 hours (mRNA 48 hours) (FIG. 13A-E)
# Description: FIG. 13 depicts 5-HTR2B signaling promotes PD-L1 expression on the MC38 cell line in vitro: (A-B) MC38 cells are treated with 5-HTR2B agonist (BW-723C86-50 μM), serotonin (100 μM), and 5-HTR2B antagonist (RS-127445-50 μM) for 72 hours, and the PD-L1 expression was checked by flow cytometry and the percentage of PD-L1^+ MC38 cells was plotted. (C-D) MFI of PD-L1 from the above experiment were plotted as histogram overlay (C) or as statistical data points (D). (E) Relative PD-L1 mRNA expression in MC38 cells following BW-723C86 and RS-127445 treatment for 48 hours. Here the values are shown as a fold change as compared to control MC38 cells. (F) Serum PD-L1 level was measured by ELISA of naïve C57BL/6J mice, control MC38 tumor-bearing mice, BW-723C86 (5 mg/kg/day) treated MC38 tumor-bearing mice and RS-127445 (5 mg/kg/day) treated MC38 tumor-bearing mice after 14 days of tumor inoculation. All the statistical analysis was performed using either Student's ‘t’ test or two-way ANOVA using Sidak's multiple comparison test. *P<0.05; **P<0.01; […]; ****P<0.0001 Error bar represents mean±standard error of means (SEM).
# To understand it, investigations were done on whether 5-HTR2B signaling also affects the surface expression of molecules that alters inflammatory and cytotoxic immune cells. Among different molecules, PD-L1 is of particular interest as it is an immune checkpoint ligand that affects cytotoxic T-cell responses toward cancer. […] (FIG. 13F).
# 4T1-Luc2 cells = assay: 4T1-Luc2 breast cancer model, tumor volume; format: in vivo, BALB/c mice; conditions: SB-215505 vs untreated, from day 7 (FIG. 7G)
# Description: FIG. 7 depicts that antagonizing the 5-HTR2B in mice inhibits breast and colon tumor growth: (A) MC38 colon cancer cells were injected subcutaneously into the right flank of C57BL/6 mice. […] Tumor volumes were measured and plotted. (B) MC38 colon cancer cells were injected subcutaneously into the right flank of C57BL/6 mice. After seven days when tumors became palpable, one group was treated with 5-HTR7 antagonist SB-269970 (n=6 mice; 3 mg/kg/day) or left untreated (n=6 mice). Tumor volume was measured and plotted. (C) After seven days of the setting of tumor growth, one group was treated with a serotonin transporter blocker (SSRI) sertraline hydrochloride (n=6 mice; 15 mg/kg/week) or left untreated (n=6 mice). Tumor volume was measured and plotted. (D) C57BL/6 mice were given subcutaneously injected MC38 cells. After seven days of tumor growth, one group of mice was treated with different doses of 5-HTR2B antagonist SB-215505 (n=6). Tumor volume was measured and plotted. […] Tumor volume was measured and plotted. […] Tumor growth was measured and plotted. […] Tumour volumes were measured and plotted. […] Tumour volumes were measured and plotted. […]
# FIG. 16 depicts the effect of the 5-HTR2B antagonist on the FDA-approved chemotherapy drug treatment: (A) BALB/C mice were inoculated with 4T1-Luc2 cells in the mammary fat pad. […] Tumor volume was measured and plotted. […]
# B16F10 cells = assay: B16F10 melanoma model, tumor volume; format: in vivo, C57BL/6J mice; conditions: SB-215505 vs untreated, from day 7 (FIG. 7H)
# Description: FIG. 7 depicts that antagonizing the 5-HTR2B in mice inhibits breast and colon tumor growth: (A) MC38 colon cancer cells were injected subcutaneously into the right flank of C57BL/6 mice. […] Tumor volumes were measured and plotted. (B) MC38 colon cancer cells were injected subcutaneously into the right flank of C57BL/6 mice. After seven days when tumors became palpable, one group was treated with 5-HTR7 antagonist SB-269970 (n=6 mice; 3 mg/kg/day) or left untreated (n=6 mice). Tumor volume was measured and plotted. (C) After seven days of the setting of tumor growth, one group was treated with a serotonin transporter blocker (SSRI) sertraline hydrochloride (n=6 mice; 15 mg/kg/week) or left untreated (n=6 mice). Tumor volume was measured and plotted. (D) C57BL/6 mice were given subcutaneously injected MC38 cells. After seven days of tumor growth, one group of mice was treated with different doses of 5-HTR2B antagonist SB-215505 (n=6). Tumor volume was measured and plotted. (E) C57BL/6 mice were given subcutaneously injected MC38 cells. After seven days of the tumor growth, one group of mice was treated with different doses of 5-HTR2B antagonist SB-215505 (n=6), one group treated with 5-HTR2B agonist BW-723C86 (n=6; 4 mg/kg/day). Tumor volume was measured and plotted. […] Tumor growth was measured and plotted. […] Tumour volumes were measured and plotted. […] Tumour volumes were measured and plotted. […]
# MC38 cells [2] = assay: MC38 tumor growth in immuno-compromised NRG mice; format: in vivo; conditions: 4 mg/kg/day from day 7; not as much as in wild-type mice (FIG. 8B)
# Description: FIG. 8 depicts that 5-HTR2B antagonism promotes antigen-specific immune response to the tumor: (A) Experimental protocol for SB-215505 treatment in MC38 tumor-bearing NRG mice. In brief, (B) MC38 cells were injected subcutaneously into NRG mice. After seven days of the tumor growth setting in mice, one group of mice was treated with 5-HTR2B antagonist SB-215505 (n=5 mice) or left untreated (n=5 mice). Tumour volumes were measured and plotted. (C) Experimental protocol for adoptive transfer of SB-215505 pre-treated naïve or MC38 tumor primed immune cells in MC38 tumor-bearing NRG mice. In brief: (D) MC38 cells were injected subcutaneously into NRG mice. Those mice were adoptively transferred with naïve (n=4 mice) or MC38 tumor primed immune cells (n=4 mice) or SB-215505 pre-treated naïve (n=4 mice) or SB-215505 pre-treated MC38 tumor primed immune cells (n=4 mice) from the day of tumor inoculation. After the tumor begins to appear, tumor volumes were measured and plotted. […]
# MC38 and MC38-cOVA cells were injected subcutaneously into the right flank of male C57BL/6 or NRG mice (0.5×10^6 cells/mouse in 150 μl PBS). […] Tumor volume was measured using a Vernier caliper on each alternate day or every third day as soon as the tumor appears. The volume of the tumor was measured using the formula V=L×W^2/2, where L=length of the tumor (mm) and W=width of the tumor (mm). […]
# [3] = 4 mg/kg/day from day 7 after inoculation, vs untreated (FIG. 7A)
structure (smiles),measurement,setting,value
CN(C)C(=O)N[C@H]1CC[C@H](CCN2CCN(c3cccc(Cl)c3Cl)CC2)CC1 [cariprazine],MC38 tumor growth,"MC38 colon cancer cells; oral gavage, 5 mg/kg body weight/day (FIG. 7F)",significant reduction in MC38 tumor growth
NCCc1c[nH]c2ccc(O)cc12 [serotonin],viability of MC38 cells,MC38 cells [1],enhanced the viability of MC38 cells
same,expression of PD-L1 in the colon cancer cells,PD-L1,did not significantly alter the PD-L1 expression
Cc1nc2sccn2c(=O)c1CCN1CCC(=C(c2ccc(F)cc2)c2ccc(F)cc2)CC1 [Ritanserin],MC38 tumor growth,MC38 colon cancer cells; [3],controls tumor growth to some extent
same,MC38 tumor growth,"MC38 colon cancer cells; 4 mg/kg/day from day 7 after inoculation, vs untreated (FIG. 7A), listed as ritanserin",did not prevent tumor growth
Cc1cc2c(cc1Cl)N(C(=O)Nc1cccc3ncccc13)CC2 [SB-215505],MC38 tumor growth,MC38 colon cancer cells; [3],efficiently control the tumor growth
same,most efficient dose in reducing MC38 tumor growth,"MC38 colon cancer cells; dose-response, doses from 0.5 mg/kg/day to 4 mg/kg/day (FIG. 7D)",4 mg/kg/day
same,"tumor burden, mice breast cancer model",4T1-Luc2 cells,reduced tumor burden
same,"tumor burden, mice melanoma model",B16F10 cells,reduced tumor burden
same,MC38 tumor growth in NRG mice,MC38 cells [2],suppressed to some extent
